According to US8263651B2, “Use of cis-epoxyeicosatrienoic acids and inhibitors of soluble epoxide hydrolase to treat conditions mediated by PBR, CB2, and NK2 receptors” (The Regents of the University of California, priority 2006, dated 2012):

Molecular target: T1, sEH (Homo sapiens, UniProt P34913)
T1 sequence (P34913 1-555): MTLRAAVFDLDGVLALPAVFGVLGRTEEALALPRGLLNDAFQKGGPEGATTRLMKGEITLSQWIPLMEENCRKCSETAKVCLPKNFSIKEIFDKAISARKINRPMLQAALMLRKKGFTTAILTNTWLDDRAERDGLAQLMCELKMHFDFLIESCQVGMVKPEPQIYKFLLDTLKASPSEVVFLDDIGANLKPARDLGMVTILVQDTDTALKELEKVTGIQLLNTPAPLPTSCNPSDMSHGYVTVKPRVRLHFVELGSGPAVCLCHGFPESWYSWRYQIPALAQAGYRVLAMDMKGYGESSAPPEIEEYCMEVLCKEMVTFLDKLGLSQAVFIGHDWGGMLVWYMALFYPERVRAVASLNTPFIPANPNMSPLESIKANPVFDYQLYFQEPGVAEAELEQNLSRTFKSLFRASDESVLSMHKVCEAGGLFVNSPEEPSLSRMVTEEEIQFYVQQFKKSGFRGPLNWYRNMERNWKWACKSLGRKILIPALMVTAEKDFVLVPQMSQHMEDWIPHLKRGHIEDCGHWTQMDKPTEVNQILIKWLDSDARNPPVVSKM
Assay: sEH inhibition, assay not specified
Assay type: biochemical
Text: Any of a number of standard assays for determining epoxide hydrolase activity can be used to determine inhibition of sEH. For example, suitable assays are described in Gill, et al., Anal Biochem 131:273-282 (1983); and Borhan, et al., Analytical Biochemistry 231:188-200 (1995)). Suitable in vitro assays are described in Zeldin et al., J. Biol. Chem. 268:6402-6407 (1993). Suitable in vivo assays are described in Zeldin et al., Arch Biochem Biophys 330:87-96 (1996). […]
The enzyme also can be detected based on the binding of specific ligands to the catalytic site which either immobilize the enzyme or label it with a probe such as dansyl, fluoracein, luciferase, green fluorescent protein or other reagent. […] The enzyme also can be detected based on the generation of fluorescent products following the hydrolysis of the epoxide. […]

- activity as an inhibitor of sEH: particularly high activity
Compound: CCCCCCCCCCCCNC(=O)NC12CC3CC(CC(C3)C1)C2 [ADU, N-Adamantyl-N′-dodecyl urea]
